Assays:
caspase-3 = assay: Caspase-3 level and cleavage by immunoblot in DCs; assay type: cell-based, mouse
Method: (§1) […] Immature DCs were treated for the indicated time with 100 ng/ml LPS (SIGMA).
(§2) Cells were lysed in 1% Triton X-100, 50 mM Hepes, 10 mM NaCl, 2.5 mM MgCl2, 2 mM EDTA, 10% glycerol, 1 mM PMSF, supplemented with Complete Mini Protease Inhibitor Cocktail Tablets (Roche). Protein quantification was performed using the BCA Protein Assay (Pierce). 25-50 μg of Triton X-100-soluble material were loaded on 2%-12% gradient SDS-PAGE before immunoblotting and chemiluminescence detection (SuperSignal West Pico Chemiluminescent Substrate, Pierce). Nuclear extraction was performed using the Nuclear Complex Co-IP kit (Active Motif). Rabbit polyclonal antibodies against ATF4 (CREB-2, C-20) and eIF2α (FL-315) were from Santa Cruz Biotechnology, as well as mouse monoclonal against GADD34 (C-19) and PKR (B-10). Rabbit polyclonal antibodies against P-eIF2α (Ser 51) and caspase-3 were from BioSource and Cell Signaling Technology respectively. Mouse monoclonal antibodies against β-actin and histone H1 were from SIGMA and Upstate respectively. Secondary antibodies were from Jackson ImmunoResearch Laboratories. Quantification of eIF2α phosphorylation was performed using the Multi Gauge software (Fujifilm).

IFN-β = IFN-β ELISA in culture supernatant of activated DCs; assay type: cell-based, mouse; details: poly I:C (or LPS) 8 h, salubrinal added 2 h before stimulation
Method: as §1
IFN-β quantification in culture supernatant of DCs (5 fold-diluted) was performed using the Mouse Interferon Beta ELISA kit (PBL InterferonSource) according to manufacturer instructions.

P-eIF2-α = assay: eIF2-α phosphorylation (P-eIF2-α) immunoblot in DCs; assay type: cell-based, mouse; details: for eIF2-α phosphorylation in presence of soluble poly I:C: DCs activated with soluble poly I:C 24 h, 75 μM salubrinal for the last 4 h
Method: (§3) Bone marrow-derived DCs were obtained and cultured as described previously^50. NIH3T3 cells were cultured in RPMI 1640 (GIBCO) supplemented with 10% FCS (HyClone, PERBIO), 100 units/ml penicillin and 100 μg/ml streptomycin (GIBCO). Wild-type and PKR^−/− MEFs (from Caetano Reis e Sousa) were cultured in DMEM, 10% FCS, pen/strep. Wild-type and GCN2^−/− MEFs (from David Ron) were cultured in RPMI, 10% FCS, pen/strep, MEM non-essential amino acids (GIBCO), 55 μM beta-mercaptoethanol. For the tryptophan starvation experiments, MEFs and DCs were cultured for the indicated time in RPMI 1640 Tryptophan—medium (21875, GIBCO). All cells were cultured at 37° C. and 5% CO2.
(§4) MEFs, NIH3T3 and immature DCs were treated for the indicated time with 10 μg/ml poly I:C (InvivoGen), alone or in combination with lipofectamine 2000 (Invitrogen). 2 μg/ml tunicamycin (SIGMA) was added to DCs for 2 h; 2 μM MG132 (BIOMOL International) was added to DCs and NIH3T3 4 h before harvesting; 75 μM salubrinal (Calbiochem) or 100 nM tautomycin (Calbiochem) were added to DCs 4 h before harvesting; 500 μM sodium arsenite (SIGMA) was added for 30 min to DCs, NIH3T3 and MEFs; 50 μM LY294002 (Calbiochem) was added to DCs 1 h before harvesting. Immature DCs were treated for the indicated time with 100 ng/ml LPS (SIGMA).
as §2

DCs [1] = assay: Translation intensity measurement by puromycin labelling in DCs; assay type: cell-based, mouse
Method: as §4, with “[…];” for “75 μM salubrinal (Calbiochem) or 100 nM tautomycin (Calbiochem) were added to DCs 4 h before harvesting;”
Puromycin labelling for measuring the intensity of translation was performed using 10 μg/ml puromycin (SIGMA, min 98% TLC, cell culture tested, P8833, diluted in PBS) was added in the culture medium and the cells were incubated for 10 min at 37° C. and 5% CO2. Where indicated, 25 μM cycloheximide (SIGMA) was added 5 min before puromycin. Cells were then harvested, centrifugated at 4° C. and washed with cold PBS prior to cell lysis and immunoblotting with the 12D10 antibody.
Cells were lysed in 1% Triton X-100, 50 mM Hepes, 10 mM NaCl, 2.5 mM MgCl2, 2 mM EDTA, 10% glycerol, 1 mM PMSF, supplemented with Complete Mini Protease Inhibitor Cocktail Tablets (Roche). Protein quantification was performed using the BCA Protein Assay (Pierce). […] Quantification of eIF2α phosphorylation was performed using the Multi Gauge software (Fujifilm).

MEFs and NIH3T3 = assay: Translation monitoring in MEFs and NIH3T3 exposed to poly I:C; assay type: cell-based, mouse; details: lipofected poly I:C, within 4 to 8 hours
Method: as §3
as §4, with “(SIGMA). […]” for “(SIGMA).”

DCs [2] = assay: mRNA quantification by real-time RT-PCR in poly I:C stimulated DCs; assay type: cell-based, mouse; details: qPCR
Method: as §4
Total RNA was isolated from DCs using the RNeasy miniprep kit (Qiagen). cDNA was synthesized from RNA samples using the Superscript II reverse transcriptase (Invitrogen). Quantitative real-time PCR was carried out in complete SYBR Green PCR buffer (PE Biosystem) by using 200 nM of each specific primer. A total of 20 μl of PCR mix was added to 5 μl of cDNA template, and the amplification was tracked via SYBR Green incorporation by using a Stratagene sequence detection system. cDNA concentration in each sample were normalized by using HPRT. A nontemplate control was also routinely performed. Primers used for gene amplification (designed with the Primer3 software) have been generated.

ATF4 = ATF4 protein immunoblot in nuclear extract of DCs; assay type: cell-based, mouse; details: poly I:C, 8 h
Method: as §4
Cells were lysed in 1% Triton X-100, 50 mM Hepes, 10 mM NaCl, 2.5 mM MgCl2, 2 mM EDTA, 10% glycerol, 1 mM PMSF, supplemented with Complete Mini Protease Inhibitor Cocktail Tablets (Roche). Protein quantification was performed using the BCA Protein Assay (Pierce). 25-50 μg of Triton X-100-soluble material were loaded on 2%-12% gradient SDS-PAGE before immunoblotting and chemiluminescence detection (SuperSignal West Pico Chemiluminescent Substrate, Pierce). Nuclear extraction was performed using the Nuclear Complex Co-IP kit (Active Motif). […] Quantification of eIF2α phosphorylation was performed using the Multi Gauge software (Fujifilm).

DCs [3] = assay: Stress granule formation in DCs (mRNA in situ hybridization, confocal microscopy); assay type: cell-based, mouse
CHIKV = details: murine IFN-β added 3 h before infection, 10 MOI, GFP expression at 24 h

O=C(/C=C/c1ccccc1)NC(NC(=S)Nc1cccc2cccnc12)C(Cl)(Cl)Cl (centres unmarked) [salubrinal]
Caspase-3 levels and cleavage, salubrinal with poly I:C or LPS (caspase-3; DCs stimulated 8 h, salubrinal added 2 h before): lighter effect than salubrinal alone | Total levels of caspase-3 and its cleaved active product (caspase-3; DCs, salubrinal treatment alone): massive increase | IFN-β secretion by activated DCs (IFN-β): drastically reduced | eIF2-α phosphorylation in presence of soluble poly I:C (P-eIF2-α): strongly accentuates eIF2-α phosphorylation | eIF2-α phosphorylation in presence of soluble poly I:C (P-eIF2-α; listed as Salubrinal): considerably enhanced | eIF2-α phosphorylation (P-eIF2-α; DCs, salubrinal alone, 75 μM, 4 h before harvesting): induced eIF2-α phosphorylation | Protein synthesis in poly I:C stimulated DCs (DCs [1]; poly I:C 4 or 8 h, salubrinal added 2 h before stimulation): strongly reduced

CO[C@H]([C@H](O)CC(=O)[C@@H](C)[C@@H](O)CC[C@@H](C)[C@@H]1O[C@]2(CC[C@@H](C)[C@H](CC[C@H](C)C(C)=O)O2)CC[C@@H]1C)[C@H](OC(=O)C[C@@H](O)C1=C(C)C(=O)OC1=O)C(C)C [tautomycin]
eIF2-α phosphorylation (same experiments as with salubrinal) (P-eIF2-α; DCs, 100 nM tautomycin 4 h before harvesting, with or without poly I:C): confirmed

polyinosinic:polycytidylic acid [poly I:C]
Caspase-3 levels and cleavage, stimulus alone (caspase-3; DCs, 8 h, no salubrinal): little effect | Translation in MEFs (wt) and NIH3T3 (MEFs and NIH3T3): efficiently induced PKR-dependent translation arrest | ATF4 mRNA expression increase (DCs [2]; 10 μg/ml poly I:C): 2 folds | CHOP mRNA expression increase (DCs [2]; 10 μg/ml poly I:C): 8 folds | CReP mRNA expression (DCs [2]; poly I:C): induced only very modestly | PP1 mRNA expression (DCs [2]; poly I:C): only modestly increased | ATF4 translation (protein level) (ATF4): strongly up-regulated | Proportion of DCs bearing stress granules upon activation (DCs [3]; DCs activated with poly I:C or LPS, 500 μM sodium arsenite for the last 30 min): 15% | P-eIF2-α levels during poly I:C stimulation (P-eIF2-α; DCs, soluble poly I:C time course): gradually reduced | Translation in DCs exposed to lipofected poly I:C (DCs [1]; after 8 hours of exposure): translation was not inhibited

sodium arsenite
Proportion of DCs bearing stress granules (DCs [3]): ~100%

B1: IFN-β: murine interferon-β added to MEFs before CHIKV infection (protein, UniProt P01575 22-182, looked up)
Interferon beta: INYKQLQLQERTNIRKCQELLEQLNGKINLTYRADFKIPMEMTEKMQKSYTAFAIQEMLQNVFLVFRNNFSSTGWNETIVVRLLDELHQQTVFLKTVLEEKQEERLTWEMSSTALHLKSYYWRVQRYLKLMKYNSYAWMVVRAEIFRNFLIIRRLTRNFQN
CHIKV replication in WT and GADD34ΔC/ΔC MEFs (CHIKV): abrogation of viral replication

From US11278543B2, “Inhibitors of the PP1/GADD34 complex for the treatment of a condition requiring an immunosuppressive activity” (INSERM, priority 2009, dated 2022)
